Source: article PMC9380551 (Antimicrobial Agents and Chemotherapy, 2022)

Test system: SARS-CoV-2 Wuhan reference strain
Format: cell-based

SMILES | comparative efficiency in inhibiting SARS-CoV-2 replication
CCC(CC)COC(=O)[C@H](C)N[P@](=O)(OC[C@H]1O[C@@](C#N)(c2ccc3c(N)ncnn23)[C@H](O)[C@@H]1O)Oc1ccccc1 [remdesivir] | the most efficient molecule
CC(C)c1nc(CN(C)C(=O)N[C@H](C(=O)N[C@@H](Cc2ccccc2)C[C@H](O)[C@H](Cc2ccccc2)NC(=O)OCc2cncs2)C(C)C)cs1 [ritonavir] | AB-00011778 was more efficient than the ritonavir molecule
